Reference: patent publication US20090280067A1, “CRYSTAL FORM OF 8-HYDROXY-5-[(1R)-1-HYDROXY-2-[[(1R)-2-(4-METHOXYPHENYL)-1-METHYLETHYL]AMINO]ETHYL]-2(1H)-QUINOLINONE MONOHYDROCHLORIDE” (Chiesi Farmaceutici S.p.A., priority 2008, published 2009)

Assay: Stability studies: storage at room temperature under different relative humidity conditions, checked by XRPD pattern
Format: physicochemical
Conditions: 25° C., 40%, 60%, 80%, 30%, 40% RH, 1 week each
Experimental: The XRPD analyses were carried out on a PANanalytical X'pert Pro X-ray powder diffractometer using Cu Kα radiation. The instrument was equipped with a X'Celerator detector. A theta-two theta continuous scan from 2.5 degrees 2 theta to 40 degrees 2 theta was used. Each sample is prepared for analysis by placing it in a quartz sample holder. The XPRD patterns are reported in terms of degrees 2 theta (°2θ, accuracy ±0.1°), diffraction peak intensity (height, [cts]), full width at half maximum (FWHM, [°2θ]), interatomic spacing in angstroms (d-spacing, [Å]), and relative intensities (%). The relative intensity is recorded as the ratio of the peak intensity to that of the most intense peak.
In order to check its thermodynamic stability, the CHF 4226 crystal form E was stored at room temperature under different relative humidity (RH) conditions: • 40% RH. and 25° C. for 1 week • 60% RH. and 25° C. for 1 week • 80% RH and 25° C. for 1 week • 60% RH and 25° C. for 1 week • 40% RH and 25° C. for 1 week • 30% RH and 25° C. for 1 week • 40% RH and 25° C. for 1 week. The thermodynamic stability of all the samples was checked by recording their XPRD pattern.

For `COc1ccc(C[C@@H](C)NC[C@H](O)c2ccc(O)c3[nH]c(=O)ccc23)cc1.Cl` [CHF 4226 crystal form E, 8-hydroxy-5-[(1R)-1-hydroxy-2-[[(1R)-2-(4-methoxyphenyl)-1-methylethyl]amino]ethyl]-2(1H)-quinolinone monohydrochloride], the “thermodynamic stability (XPRD pattern) after storage” value was “stable features under all stability screening conditions”.
